Experiments:
CD34+ cells = experiment: Time-course and dose-response of dmPGE2 in promoting viral transduction (GFP+ lentivirus, flow cytometry); assay type: cell-based, human; details: for percentage of cells positive for GFP: MOI 25
Description: MCD-34+ cells were thawed and pre-stimulated with SCF, TPO, FltL and IL3, then transduced with GFP+ lentivirus at a multiplicity of infection of 25. Cells were exposed to dmPGE2 during the viral transduction step (24-25 hours of culture; 24-26 hours of culture; 24-28 hours of culture; or 24-48 hours of culture) and then washed and analyzed by flow cytometry after approximately 1 week in culture. Alternatively, cells were exposed to dmPGE2 during the pre-stimulation step (22-24 hours of culture; 23-24 hours of culture).

HSCs = details: published data, Goessling et al., Cell Stem Cell 2011; cited from earlier work

## CCCCC(C)(C)[C@H](O)/C=C/[C@H]1[C@H](O)CC(=O)[C@@H]1C/C=C\CCCC(=O)O [dmPGE2, 16,16-dimethyl PGE2]
CD34+ cells; dmPGE2 1 uM, Pre-Stim w/PGE2 Minus 2 Hr (22-24 hours of culture)
  percentage of cells positive for GFP: 25.74%
CD34+ cells; dmPGE2 1 uM, Virus and PGE2 24 Hr (24-48 hours of culture)
  percentage of cells positive for GFP: 32.03%
CD34+ cells; dmPGE2 1 uM, Virus and PGE2 Plus 1 Hr (24-25 hours of culture)
  percentage of cells positive for GFP: 2.94%
CD34+ cells; dmPGE2 1 uM, Virus and PGE2 Plus 2 Hr (24-26 hours of culture)
  percentage of cells positive for GFP: 7.17%
CD34+ cells; dmPGE2 1 uM, Virus and PGE2 Plus 4 Hr (24-28 hours of culture)
  percentage of cells positive for GFP: 21.10%
CD34+ cells; dmPGE2 12.5 uM, Pre-Stim w/PGE2 Minus 1 Hr (23-24 hours of culture)
  percentage of cells positive for GFP: 22.13%
CD34+ cells; dmPGE2 12.5 uM, Pre-Stim w/PGE2 Minus 2 Hr (22-24 hours of culture)
  percentage of cells positive for GFP: 30.64%
CD34+ cells; dmPGE2 12.5 uM, Virus and PGE2 24 Hr (24-48 hours of culture)
  percentage of cells positive for GFP: 47.42%
CD34+ cells; dmPGE2 12.5 uM, Virus and PGE2 Plus 1 Hr (24-25 hours of culture)
  percentage of cells positive for GFP: 1.97%
CD34+ cells; dmPGE2 12.5 uM, Virus and PGE2 Plus 2 Hr (24-26 hours of culture)
  percentage of cells positive for GFP: 5.32%
CD34+ cells; dmPGE2 12.5 uM, Virus and PGE2 Plus 4 Hr (24-28 hours of culture)
  percentage of cells positive for GFP: 28.08%
CD34+ cells; dmPGE2 25 uM, Pre-Stim w/PGE2 Minus 1 Hr (23-24 hours of culture)
  percentage of cells positive for GFP: 24.05%
CD34+ cells; dmPGE2 25 uM, Pre-Stim w/PGE2 Minus 2 Hr (22-24 hours of culture)
  percentage of cells positive for GFP: 31.90%
CD34+ cells; dmPGE2 25 uM, Virus and PGE2 24 Hr (24-48 hours of culture)
  percentage of cells positive for GFP: 50.69%
CD34+ cells; dmPGE2 25 uM, Virus and PGE2 Plus 1 Hr (24-25 hours of culture)
  percentage of cells positive for GFP: 1.76%
CD34+ cells; dmPGE2 25 uM, Virus and PGE2 Plus 2 Hr (24-26 hours of culture)
  percentage of cells positive for GFP: 4.76%
CD34+ cells; dmPGE2 25 uM, Virus and PGE2 Plus 4 Hr (24-28 hours of culture)
  percentage of cells positive for GFP: 27.46%
CD34+ cells; dmPGE2 50 uM, Pre-Stim w/PGE2 Minus 1 Hr (23-24 hours of culture)
  percentage of cells positive for GFP: 22.98%
CD34+ cells; dmPGE2 50 uM, Pre-Stim w/PGE2 Minus 2 Hr (22-24 hours of culture)
  percentage of cells positive for GFP: 31.85%
CD34+ cells; dmPGE2 50 uM, Virus and PGE2 24 Hr (24-48 hours of culture)
  percentage of cells positive for GFP: 54.63%
CD34+ cells; dmPGE2 50 uM, Virus and PGE2 Plus 1 Hr (24-25 hours of culture)
  percentage of cells positive for GFP: 1.85%
CD34+ cells; dmPGE2 50 uM, Virus and PGE2 Plus 2 Hr (24-26 hours of culture)
  percentage of cells positive for GFP: 4.23%
CD34+ cells; dmPGE2 50 uM, Virus and PGE2 Plus 4 Hr (24-28 hours of culture)
  percentage of cells positive for GFP: 27.45%
CD34+ cells; dmPGE2 100 uM, Pre-Stim w/PGE2 Minus 1 Hr (23-24 hours of culture)
  percentage of cells positive for GFP: 25.14%
CD34+ cells; dmPGE2 100 uM, Pre-Stim w/PGE2 Minus 2 Hr (22-24 hours of culture)
  percentage of cells positive for GFP: 34.85%
CD34+ cells; dmPGE2 100 uM, Virus and PGE2 24 Hr (24-48 hours of culture)
  percentage of cells positive for GFP: 76.44%
CD34+ cells; dmPGE2 100 uM, Virus and PGE2 Plus 1 Hr (24-25 hours of culture)
  percentage of cells positive for GFP: 2.48%
CD34+ cells; dmPGE2 100 uM, Virus and PGE2 Plus 2 Hr (24-26 hours of culture)
  percentage of cells positive for GFP: 4.02%
CD34+ cells; dmPGE2 100 uM, Virus and PGE2 Plus 4 Hr (24-28 hours of culture)
  percentage of cells positive for GFP: 21.57%
CD34+ cells; time windows commonly used for promoting hematopoietic stem cell activity, on the order of one to two hours
  improvement of viral transduction: unable to improve viral transduction
HSCs
  promotion of viral transduction of HSCs: unable to promote viral transduction of HSCs

Reference: patent US20150216903A1, “COMPOUNDS FOR IMPROVED VIRAL TRANSDUCTION” (BLUEBIRD BIO, INC., priority 2012, published 2015)
